Results taken from patent publication US8192962B2, “Processes for detecting toxic substances” (Daikin Industries, Ltd., priority 2001, dated 2012).

Tested on: Genes belonging to other category
Assay: DNA chip mRNA expression in yeast, genes belonging to other category (Table 9)
Assay type: cell-based, Saccharomyces cerevisiae S288C
Procedure, shortened: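 In this screen, yeast in logarithmic growth are challenged for two hours with a toxic substance at a non-lethal inhibitory concentration. Their mRNA, converted to Cy3- or Cy5-labeled cDNA, hybridizes at 65° C. to a chip spanning every yeast gene, and expression is expressed as a ratio to untreated cells.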

## CCCCCCCCCCCCc1ccc(S(=O)(=O)[O-])cc1.[Na+] [(17), sodium dodecylbenzosulfonate]
Yeast gene YKL008C
  The level of expressed mRNA in the presence of chemical substance/The level of expressed mRNA in the absence of chemical substance: 1.4
Yeast gene YKL013C
  The level of expressed mRNA in the presence of chemical substance/The level of expressed mRNA in the absence of chemical substance: 1.6
Yeast gene YKL039W
  The level of expressed mRNA in the presence of chemical substance/The level of expressed mRNA in the absence of chemical substance: 1.2
Yeast gene YKL096W
  The level of expressed mRNA in the presence of chemical substance/The level of expressed mRNA in the absence of chemical substance: 0.5
Yeast gene YKL165C
  The level of expressed mRNA in the presence of chemical substance/The level of expressed mRNA in the absence of chemical substance: 0.9
Yeast gene YKL193C
  The level of expressed mRNA in the presence of chemical substance/The level of expressed mRNA in the absence of chemical substance: 1.2
Yeast gene YLR120C
  The level of expressed mRNA in the presence of chemical substance/The level of expressed mRNA in the absence of chemical substance: 3.5
Yeast gene YLR136C
  The level of expressed mRNA in the presence of chemical substance/The level of expressed mRNA in the absence of chemical substance: 1.8
Yeast gene YLR178C
  The level of expressed mRNA in the presence of chemical substance/The level of expressed mRNA in the absence of chemical substance: 2.0
Yeast gene YLR250W
  The level of expressed mRNA in the presence of chemical substance/The level of expressed mRNA in the absence of chemical substance: 1.4
Yeast gene YLR327C
  The level of expressed mRNA in the presence of chemical substance/The level of expressed mRNA in the absence of chemical substance: 3.3
Yeast gene YLR356W
  The level of expressed mRNA in the presence of chemical substance/The level of expressed mRNA in the absence of chemical substance: 1.1
Yeast gene YLR362W
  The level of expressed mRNA in the presence of chemical substance/The level of expressed mRNA in the absence of chemical substance: 1.2
Yeast gene YLR391W
  The level of expressed mRNA in the presence of chemical substance/The level of expressed mRNA in the absence of chemical substance: 1.4
Yeast gene YLR429W
  The level of expressed mRNA in the presence of chemical substance/The level of expressed mRNA in the absence of chemical substance: 1.0
Yeast gene YMR004W
  The level of expressed mRNA in the presence of chemical substance/The level of expressed mRNA in the absence of chemical substance: 0.9
Yeast gene YMR094W
  The level of expressed mRNA in the presence of chemical substance/The level of expressed mRNA in the absence of chemical substance: 1.0
Yeast gene YMR104C
  The level of expressed mRNA in the presence of chemical substance/The level of expressed mRNA in the absence of chemical substance: 2.8
Yeast gene YMR219W
  The level of expressed mRNA in the presence of chemical substance/The level of expressed mRNA in the absence of chemical substance: 1.1
Yeast gene YMR226C
  The level of expressed mRNA in the presence of chemical substance/The level of expressed mRNA in the absence of chemical substance: 1.6
Yeast gene YMR275C
  The level of expressed mRNA in the presence of chemical substance/The level of expressed mRNA in the absence of chemical substance: 0.9
Yeast gene YMR276W
  The level of expressed mRNA in the presence of chemical substance/The level of expressed mRNA in the absence of chemical substance: 1.2
Yeast gene YMR314W
  The level of expressed mRNA in the presence of chemical substance/The level of expressed mRNA in the absence of chemical substance: 1.3
Yeast gene YNL006W
  The level of expressed mRNA in the presence of chemical substance/The level of expressed mRNA in the absence of chemical substance: 1.0
Yeast gene YNL007C
  The level of expressed mRNA in the presence of chemical substance/The level of expressed mRNA in the absence of chemical substance: 1.1
Yeast gene YNL093W
  The level of expressed mRNA in the presence of chemical substance/The level of expressed mRNA in the absence of chemical substance: 3.0
Yeast gene YNL333W
  The level of expressed mRNA in the presence of chemical substance/The level of expressed mRNA in the absence of chemical substance: 1.4
Yeast gene YNR010W
  The level of expressed mRNA in the presence of chemical substance/The level of expressed mRNA in the absence of chemical substance: 1.7
Yeast gene YNR069C
  The level of expressed mRNA in the presence of chemical substance/The level of expressed mRNA in the absence of chemical substance: 1.1
Yeast gene YOL013C
  The level of expressed mRNA in the presence of chemical substance/The level of expressed mRNA in the absence of chemical substance: 1.1
Yeast gene YOL164W
  The level of expressed mRNA in the presence of chemical substance/The level of expressed mRNA in the absence of chemical substance: 1.1
Yeast gene YOR036W
  The level of expressed mRNA in the presence of chemical substance/The level of expressed mRNA in the absence of chemical substance: 1.6
Yeast gene YOR117W
  The level of expressed mRNA in the presence of chemical substance/The level of expressed mRNA in the absence of chemical substance: 1.4
Yeast gene YOR124C
  The level of expressed mRNA in the presence of chemical substance/The level of expressed mRNA in the absence of chemical substance: 1.0
Yeast gene YOR132W
  The level of expressed mRNA in the presence of chemical substance/The level of expressed mRNA in the absence of chemical substance: 1.2
Yeast gene YOR157C
  The level of expressed mRNA in the presence of chemical substance/The level of expressed mRNA in the absence of chemical substance: 1.2
Yeast gene YOR181W
  The level of expressed mRNA in the presence of chemical substance/The level of expressed mRNA in the absence of chemical substance: 1.1
Yeast gene YOR185C
  The level of expressed mRNA in the presence of chemical substance/The level of expressed mRNA in the absence of chemical substance: 0.9
Yeast gene YOR198C
  The level of expressed mRNA in the presence of chemical substance/The level of expressed mRNA in the absence of chemical substance: 1.1
Yeast gene YOR259C
  The level of expressed mRNA in the presence of chemical substance/The level of expressed mRNA in the absence of chemical substance: 0.9
Yeast gene YOR261C
  The level of expressed mRNA in the presence of chemical substance/The level of expressed mRNA in the absence of chemical substance: 1.0
Yeast gene YOR288C
  The level of expressed mRNA in the presence of chemical substance/The level of expressed mRNA in the absence of chemical substance: 1.5
Yeast gene YOR355W
  The level of expressed mRNA in the presence of chemical substance/The level of expressed mRNA in the absence of chemical substance: 0.8
Yeast gene YOR383C
  The level of expressed mRNA in the presence of chemical substance/The level of expressed mRNA in the absence of chemical substance: 1.4
Yeast gene YPL089C
  The level of expressed mRNA in the presence of chemical substance/The level of expressed mRNA in the absence of chemical substance: 1.5
Yeast gene YPL109C
  The level of expressed mRNA in the presence of chemical substance/The level of expressed mRNA in the absence of chemical substance: 1.2
Yeast gene YPL149W
  The level of expressed mRNA in the presence of chemical substance/The level of expressed mRNA in the absence of chemical substance: 2.2
Yeast gene YPL154C
  The level of expressed mRNA in the presence of chemical substance/The level of expressed mRNA in the absence of chemical substance: 1.6
Yeast gene YPR103W
  The level of expressed mRNA in the presence of chemical substance/The level of expressed mRNA in the absence of chemical substance: 1.2
Yeast gene YPR108W
  The level of expressed mRNA in the presence of chemical substance/The level of expressed mRNA in the absence of chemical substance: 1.0
